Data published in publication PMC5903252 (British Journal of Clinical Pharmacology, 2018).

Test: Plasma pharmacokinetics of BMS-962212 after IV infusion
Conditions: for clearance / Vd / half-life / AUC(0-inf) / AUC(0-t) / Cmax / Tmax: human, in vivo
[1] = part B 1 mg h^−1, Japanese ethnicity (n = 4), geometric mean (CV%)
[2] = part B 1 mg h^−1, Non-Japanese ethnicity (n = 4), geometric mean (CV%)
[3] = part B 3 mg h^−1, Japanese ethnicity (n = 4), geometric mean (CV%)
[4] = part B 3 mg h^−1, Non-Japanese ethnicity (n = 4), geometric mean (CV%)
[5] = part B 9 mg h^−1, Japanese ethnicity (n = 4), geometric mean (CV%)
[6] = part B 9 mg h^−1, Non-Japanese ethnicity (n = 4), geometric mean (CV%)
[7] = part B 20 mg h^−1, Japanese ethnicity (n = 4), geometric mean (CV%)
[8] = part B 20 mg h^−1, Non-Japanese ethnicity (n = 4), geometric mean (CV%)

**Q.** For `CN1CCN(c2cccc3c2CCN(C(=O)/C=C/c2c(-n4cnnn4)ccc(Cl)c2F)[C@@H]3C(=O)Nc2ccc(C(=O)O)cc2)C(=O)C1` [BMS‐962212], which clearance (iv, 1.5 mg h^−1, CL, part A 2-h IV infusion 1.5 mg h^−1, geometric mean (CV%)) is on record?
**A.** The clearance was 276 mL/min.

**Q.** And the Vd (iv, 1.5 mg h^−1, Vz, part A 2-h IV infusion 1.5 mg h^−1, geometric mean (CV%))?
**A.** The Vd was 72.6 L.

**Q.** What about the half-life (iv, 1.5 mg h^−1, t1/2, part A 2-h IV infusion 1.5 mg h^−1, geometric mean (CV%)) of the same molecule?
**A.** Its half-life is 2.04 h.

**Q.** What about the AUC(0-inf) (iv, 3 mg h^−1) of the same molecule?
**A.** Its AUC(0-inf) is 21400 ng·h/mL.

**Q.** And the AUC(0-t) (iv, 3 mg h^−1)?
**A.** The AUC(0-t) was 21200 ng·h/mL.

**Q.** What about the Cmax (iv, 3 mg h^−1) of the same molecule?
**A.** Its Cmax is 202 ng/mL.

**Q.** What about the Tmax (iv, 3 mg h^−1) of the same molecule?
**A.** The Tmax was 60 h.

**Q.** What about the clearance (iv, 3 mg h^−1, CL, part B 5-day IV infusion 3 mg h^−1, geometric mean (CV%)) of the same molecule?
**A.** The clearance was 280 mL/min.

**Q.** And the Vd (iv, 3 mg h^−1, Vz, part B 5-day IV infusion 3 mg h^−1, geometric mean (CV%))?
**A.** The Vd was 165 L.

**Q.** And the half-life (iv, 3 mg h^−1, t1/2, part B 5-day IV infusion 3 mg h^−1, geometric mean (CV%))?
**A.** The half-life was 6.22 h.

**Q.** And the AUC(0-inf) (iv, 4 mg h^−1)?
**A.** Its AUC(0-inf) is 377 ng·h/mL.

**Q.** What about the AUC(0-t) (iv, 4 mg h^−1) of the same molecule?
**A.** Its AUC(0-t) is 233 ng·h/mL.

**Q.** And the Cmax (iv, 4 mg h^−1)?
**A.** The Cmax was 182 ng/mL.

**Q.** And the Tmax (iv, 4 mg h^−1)?
**A.** The Tmax was 2 h.

**Q.** And the clearance (iv, 4 mg h^−1, CL, part A 2-h IV infusion 4 mg h^−1, geometric mean (CV%))?
**A.** The clearance was 358 mL/min.

**Q.** And the Vd (iv, 4 mg h^−1, Vz, part A 2-h IV infusion 4 mg h^−1, geometric mean (CV%))?
**A.** Its Vd is 118 L.

**Q.** What about the half-life (iv, 4 mg h^−1, t1/2, part A 2-h IV infusion 4 mg h^−1, geometric mean (CV%)) of the same molecule?
**A.** The half-life was 3.95 h.

**Q.** What about the AUC(0-inf) (iv, 9 mg h^−1) of the same molecule?
**A.** The AUC(0-inf) was 55500 ng·h/mL.

**Q.** And the AUC(0-t) (iv, 9 mg h^−1)?
**A.** The AUC(0-t) was 54800 ng·h/mL.

**Q.** What about the Cmax (iv, 9 mg h^−1) of the same molecule?
**A.** Its Cmax is 520 ng/mL.

**Q.** And the Tmax (iv, 9 mg h^−1)?
**A.** The Tmax was 36 h.

**Q.** What about the clearance (iv, 9 mg h^−1, CL, part B 5-day IV infusion 9 mg h^−1, geometric mean (CV%)) of the same molecule?
**A.** The clearance was 324 mL/min.

**Q.** What about the Vd (iv, 9 mg h^−1, Vz, part B 5-day IV infusion 9 mg h^−1, geometric mean (CV%)) of the same molecule?
**A.** The Vd was 216 L.

**Q.** What about the half-life (iv, 9 mg h^−1, t1/2, part B 5-day IV infusion 9 mg h^−1, geometric mean (CV%)) of the same molecule?
**A.** Its half-life is 8.65 h.

**Q.** What about the AUC(0-inf) (iv, 10 mg h^−1) of the same molecule?
**A.** The AUC(0-inf) was 1050 ng·h/mL.

**Q.** And the AUC(0-t) (iv, 10 mg h^−1)?
**A.** The AUC(0-t) was 664 ng·h/mL.

**Q.** What about the Cmax (iv, 10 mg h^−1) of the same molecule?
**A.** Its Cmax is 505 ng/mL.

**Q.** What about the Tmax (iv, 10 mg h^−1) of the same molecule?
**A.** Its Tmax is 2 h.

**Q.** What about the clearance (iv, 10 mg h^−1, CL, part A 2-h IV infusion 10 mg h^−1, geometric mean (CV%)) of the same molecule?
**A.** Its clearance is 320 mL/min.

**Q.** What about the Vd (iv, 10 mg h^−1, Vz, part A 2-h IV infusion 10 mg h^−1, geometric mean (CV%)) of the same molecule?
**A.** The Vd was 126 L.

**Q.** And the half-life (iv, 10 mg h^−1, t1/2, part A 2-h IV infusion 10 mg h^−1, geometric mean (CV%))?
**A.** Its half-life is 4.68 h.

**Q.** What about the AUC(0-inf) (iv, 20 mg h^−1) of the same molecule?
**A.** The AUC(0-inf) was 126000 ng·h/mL.

**Q.** And the AUC(0-t) (iv, 20 mg h^−1)?
**A.** Its AUC(0-t) is 124000 ng·h/mL.

**Q.** And the Cmax (iv, 20 mg h^−1)?
**A.** Its Cmax is 1170 ng/mL.

**Q.** And the Tmax (iv, 20 mg h^−1)?
**A.** The Tmax was 60 h.

**Q.** What about the clearance (iv, 20 mg h^−1, CL, part B 5-day IV infusion 20 mg h^−1, geometric mean (CV%)) of the same molecule?
**A.** Its clearance is 317 mL/min.

**Q.** And the Vd (iv, 20 mg h^−1, Vz, part B 5-day IV infusion 20 mg h^−1, geometric mean (CV%))?
**A.** Its Vd is 219 L.

**Q.** And the half-life (iv, 20 mg h^−1, t1/2, part B 5-day IV infusion 20 mg h^−1, geometric mean (CV%))?
**A.** The half-life was 7.65 h.

**Q.** And the AUC(0-inf) (iv, 25 mg h^−1)?
**A.** Its AUC(0-inf) is 2730 ng·h/mL.

**Q.** And the AUC(0-t) (iv, 25 mg h^−1)?
**A.** Its AUC(0-t) is 1740 ng·h/mL.

**Q.** And the Cmax (iv, 25 mg h^−1)?
**A.** The Cmax was 1120 ng/mL.

**Q.** And the Tmax (iv, 25 mg h^−1)?
**A.** Its Tmax is 2 h.

**Q.** What about the clearance (iv, 25 mg h^−1, CL, part A 2-h IV infusion 25 mg h^−1, geometric mean (CV%)) of the same molecule?
**A.** The clearance was 312 mL/min.

**Q.** And the Vd (iv, 25 mg h^−1, Vz, part A 2-h IV infusion 25 mg h^−1, geometric mean (CV%))?
**A.** Its Vd is 129 L.

**Q.** What about the half-life (iv, 25 mg h^−1, t1/2, part A 2-h IV infusion 25 mg h^−1, geometric mean (CV%)) of the same molecule?
**A.** The half-life was 4.94 h.

**Q.** What about the clearance (iv, CL, range across panels, part A 2-h IV infusion) of the same molecule?
**A.** The clearance was 276 to 358 mL/min.

**Q.** And the clearance (iv, CL, range across panels, part B 5-day IV infusion)?
**A.** The clearance was 280 to 324 mL/min.

**Q.** What about the Vd (iv, Vss, range across panels, 5-day IV infusion) of the same molecule?
**A.** Its Vd is 164 to 218 L.

**Q.** And the Vd (iv, Vz, range across panels, 2-h IV infusion)?
**A.** Its Vd is 72 to 129 L.

**Q.** And the half-life (t1/2 range over all dose groups, part B, Japanese subjects)?
**A.** The half-life was 6.42 to 8.28 h.

**Q.** What about the half-life (t1/2 range over all dose groups, part B, non-Japanese subjects) of the same molecule?
**A.** Its half-life is 6.05 to 8.32 h.

**Q.** And the “Steady‐state concentration” value [1]?
**A.** Its value is 55.81 (20.5) ng ml ^−1.

**Q.** What about the “Weight‐corrected steady‐state concentration” value [1] of the same molecule?
**A.** The value was 4.21 (21.6) kg μg.ml ^−1.

**Q.** What about the “Steady‐state concentration” value [2] of the same molecule?
**A.** The value was 49.88 (27.3) ng ml ^−1.

**Q.** What about the “Weight‐corrected steady‐state concentration” value [2] of the same molecule?
**A.** The value was 4.34 (15.5) kg μg.ml ^−1.

**Q.** What about the “Steady‐state concentration” value [3] of the same molecule?
**A.** The value was 188.03 (17.9) ng ml ^−1.

**Q.** What about the “Weight‐corrected steady‐state concentration” value [3] of the same molecule?
**A.** The value was 14.33 (32.9) kg μg.ml ^−1.

**Q.** What about the “Steady‐state concentration” value [4] of the same molecule?
**A.** The value was 157.76 (12.9) ng ml ^−1.

**Q.** What about the “Weight‐corrected steady‐state concentration” value [4] of the same molecule?
**A.** Its value is 14.10 (22.7) kg μg.ml ^−1.

**Q.** What about the “Steady‐state concentration” value [5] of the same molecule?
**A.** Its value is 439.27 (18.9) ng ml ^−1.

**Q.** And the “Weight‐corrected steady‐state concentration” value [5]?
**A.** The value was 29.60 (18.9) kg μg.ml ^−1.

**Q.** What about the “Steady‐state concentration” value [6] of the same molecule?
**A.** Its value is 458.34 (18.9) ng ml ^−1.

**Q.** And the “Weight‐corrected steady‐state concentration” value [6]?
**A.** Its value is 34.47 (23.5) kg μg.ml ^−1.

**Q.** And the “Steady‐state concentration” value [7]?
**A.** The value was 1161.68 (17.7) ng ml ^−1.

**Q.** What about the “Weight‐corrected steady‐state concentration” value [7] of the same molecule?
**A.** Its value is 76.07 (30.1) kg μg.ml ^−1.

**Q.** And the “Steady‐state concentration” value [8]?
**A.** Its value is 887.21 (23.3) ng ml ^−1.

**Q.** And the “Weight‐corrected steady‐state concentration” value [8]?
**A.** The value was 70.57 (32.4) kg μg.ml ^−1.

**Q.** What about the dose proportionality (parts A and B) of the same molecule?
**A.** The dose proportionality was “demonstrated dose proportionality”.
